# Measured values reported in patent publication US10718006B2, “Methods for detecting beta-lactamase-producing bacteria” (priority 2015, dated 2020).
# Assays:
# Test in all cases: β-Lacta Test (colorimetric, HMRZ-86), isolated colonies
# Type in all cases: cell-based
# Parameters in all cases: key: Yellow or orange colour: negative result (absence of C3G-resistant strains); Orange: Yellow or orange colour: negative result (absence of C3G-resistant strains); Red colour: positive result (presence of C3G-resistant strains)
# [1] = test system: E. aerogenes strains
# Method: (§1) The electrochemical method of the invention was applied to analysis of a panel of 40 strains producing various β-lactamases and was compared with the R-Lacta™ Test (Biorad), the principle of which is based on qualitative colorimetric detection of the C3G-resistant strains. The results presented in Table 7 were obtained after 30 min of incubation of the bacteria with the substrate HMRZ-86 for both methods. Based on the interpretation of the results proposed by the supplier, the R-Lacta™ Test allows identification of the C3G-resistant strains with a level of agreement of 68%, whereas a level of agreement of 95% was obtained with the electrochemical method of the invention. In contrast to colorimetry, amperometry offers the advantage of measuring a numerical value of current which, on the one hand, avoids any subjective interpretation of the result (intermediate colour), and on the other hand allows traceability of the result.
# (§2) Table 7: Comparison of the results obtained with the electrochemical method of the invention for liquid cultures with those obtained with the R-Lacta™ Test implemented according to the supplier's recommendations with isolated colonies. In both cases, the readings were taken after incubation with the substrate HMRZ-86 for 30 min.
# [2] = test system: E. cloacae strains; conditions: 30 min with HMRZ-86
# Method: as §1, §2
# [3] = test system: K. oxytoca strain; conditions: K. oxytoca 11779, Low-level penicillinase, 30 min with HMRZ-86
# Method: as §1, §2
# [4] = test system: K. pneumoniae strains
# Method: as §1, §2
# [5] = test system: P. mirabilis strains; conditions: 30 min with HMRZ-86
# Method: as §1, §2
# [6] = test system: S. marcescens strain; conditions: S. marcescens 11787, Hyperproduced cephalosporinase, 30 min with HMRZ-86
# Method: as §1, §2
smiles,measurement,setting,value
"CC(C)(ON=C(C(=O)N[C@@H]1C(=O)N2C(C(=O)O)=C(C=Cc3ccc([N+](=O)[O-])cc3[N+](=O)[O-])CS[C@H]12)c1csc(N)n1)C(=O)O.O=C(O)C(F)(F)F [HMRZ-86, (6R,7R)-trifluoroacetate 7-[[2-(2-amino-4-thiazolyl)-2-[(1-carboxy-1-methylethoxy)imino]acetyl]amino]-1-aza-3-[2-(2,4-dinitrophenyl)ethenyl]-8-oxo-5-thiabicyclo[4.2.0]oct-2-ene-2-carboxylic acid]",β-Lacta ™ Test Colour,"[1]; E. aerogenes 11772, Inducible cephalosporinase, 30 min with HMRZ-86",Yellow
same,β-Lacta ™ Test Colour,"[1]; E. aerogenes 11775, Hyperproduced cephalosporinase, 30 min with HMRZ-86",Yellow
same,β-Lacta ™ Test Colour,"[1]; E. aerogenes 11796, ESBL TEM 24, 30 min with HMRZ-86",Orange
same,β-Lacta ™ Test Colour,"[2]; E. cloacae 11784, Hyperproduced cephalosporinase",Orange
same,β-Lacta ™ Test Colour,"[2]; E. cloacae 11790, Hyperproduced cephalosporinase",Orange
same,β-Lacta ™ Test Colour,"[2]; E. cloacae 11794, Hyperproduced cephalosporinase",Orange
same,β-Lacta ™ Test Colour,[3],Yellow
same,β-Lacta ™ Test Colour,"[4]; K. pneumoniae 11754, Carbapenemase OXA-48 - CTX-M, 30 min with HMRZ-86",Red
same,β-Lacta ™ Test Colour,"[4]; K. pneumoniae 11762, Carbapenemase OXA-48, 30 min with HMRZ-86",Orange
same,β-Lacta ™ Test Colour,"[4]; K. pneumoniae 11770, Low-level penicillinase, 30 min with HMRZ-86",Yellow
same,β-Lacta ™ Test Colour,"[4]; K. pneumoniae 11812, ESBL CTX-M-15, 30 min with HMRZ-86",Red
same,β-Lacta ™ Test Colour,"[4]; K. pneumoniae 11839, Carbapenemase KPC-2, 30 min with HMRZ-86",Red
same,β-Lacta ™ Test Colour,"[4]; K. pneumoniae 11842, Carbapenemase NDM-1, 30 min with HMRZ-86",Red
same,β-Lacta ™ Test Colour,"[5]; P. mirabilis 11747, Beta-lactamase negative",Yellow
same,β-Lacta ™ Test Colour,"[5]; P. mirabilis 11768, Low-level penicillinase",Yellow
same,β-Lacta ™ Test Colour,[6],Orange
